Assay [1] is described as follows: In-vitro investigation of DHA and DHA/glucuronolactone (Liquidskin model, L-a-b values). The conditions noted are these: 37° C., pH 7.
Assay [2] has as its system B16V mouse melanoma cells. Kind of assay: B16 V mouse melanoma cell test (melanin concentration). In kind it is cell-based. As to conditions: for Melanin concentration %: relative to blank DMSO + α-MSH = 100%. The procedure:
Description of the performance of the B16 V mouse melanoma cell test:
B16V mouse melanoma cells (manufacturer: DSMZ; Article No,: ACC370) in RPMI medium (Invitrogen, Article No.: 31870), to which 10% of FBS (foetal bovine serum, Invitrogen, Article No: 10499044), 2 mM L-glutamine (Invitrogen, Article No: 25030) and 1 mM sodium pyruvate (Invitrogen, Article No:11360) had additionally been added (modified RPMI medium), are transferred into a culture bottle and incubated at 37° C. and 5% CO2 for 72 h. The medium is separated off, and the cells are washed with 10 ml of D-PBS (Invitrogen, Article No. 14190) and subsequently filtered off with suction. 1 ml of HyQtase cell detachment solution (Hyclone, Article No. SV30030.01) is added to the cells. The bottle is swirled a number of times, and the HyQtase cell detachment solution is subsequently removed by suction. The cells are then incubated in the incubator at 37° C. and 5% CO2 for 5 min. The cells are taken up in the modified RPMI medium (Invitrogen, Article No.: 31870), and the cell count is determined. To this end, the cells are stained with Tryptan Blue and counted in a Neubauer chamber. The cells are subsequently sown out again in the modified RPMI medium in a defined cell count of 80,000 cells per well (6-well clear plate, TCT, PS (Nunc)).
The plate is subsequently incubated at 37° C. and 5% CO2 for 24 h, the medium is then removed. […]
After the final incubation period, the medium is removed by suction, and the cells are washed with 1000 μl of D-PBS (Invitrogen, Article No. 14190). […] The cell count is subsequently determined. To this end, the cells are stained with Tryptan Blue and counted in a Neubauer chamber. […] 200 μl are then pipetted as quadruple determination (per cup) into a 96-well plate (VWR, Article No. 4100636981), and the absorption at a wavelength of 405 nm is determined. […] The content of melanin can be determined in this way by means of a calibration line.
The other values were determined relative to the blank sample with dimethyl sulfoxide (DMSO) and a-MSH, whose measurement was set at 100%

In assay [3] the test system is explants from the stomach tissue of a pale-skinned person (type). Kind of assay: Ex-vivo study: chromametric colour measurement of skin explants. On the set-up: species or system human; key to b / a: CIE L*a*b* colour coordinates, Minolta CR-300 chromameter, D65. On the procedure: 12 explants from the stomach tissue of a pale-skinned person (type) having an average diameter of 10 mm are prepared (reference: P831-AB49).
The explants are kept in a BEM medium (B10-EC's explants medium) at 37° C. in a moist atmosphere comprising 5% of CO2.
The following samples are tested: (in each case 3 explants), where the solutions of the corresponding substances used comprise 90% of water and 10% of ethanol.
Glucuronolactone is employed in the bicyclic form.
2 μl of the respective sample are added to the explants and distributed for the first time (D0), 1 day later (D1), 2 days later (D2), 3 days later (D3) and 4 days later (D4). The colour of the explants is determined chromametrically. The measurements are carried out on addition (D0), on day 1 (D1), on day 5 (D5) and on day 11 (D11).
The colour measurements are carried out using a Minolta CR-300 Chroma-meter, and the L, a and b values are read off correspondingly on the instrument.
The following parameters are set:
A colour area is present here which is viewed at a viewing angle of 2 degrees. This viewing angle is used as standard in the chromametric measurement. • Irradiation source D65, corresponding to daylight • Region of the measurement: 3 mm • Parameters used: L*a*b*
The sample is placed on the bearing rail with the epidermis facing downwards. The irradiation is carried out from the underside through the area indicated (3 mm).
In the colorimetric determinations <<L a b>>, the L value determines the contrast of the skin. If the L value drops, the skin appears darker.
Δa after one day is calculated as follows: […]

Assay [4] has the same test system. Described as above. Details: species or system human; key: change in the L*a*b* a value from D0. The conditions noted are these: D5 vs D0; single explants; listed as P2.
[5] abbreviates: D0 (on addition), single explants, n=3, listed as P2.
[6] abbreviates: D1, single explants, n=3, listed as P2.
The mark [7] stands for this setting: D5, single explants, n=3, listed as P2.
The mark [8] stands for this setting: D11, single explants, n=3, listed as P2.

Several values for one entry are separate records, joined by “and”; a condition that tells them apart may be missing. Equal entries are not always repeated.

As for `O=C(CO)CO` [DHA, 1,3-dihydroxyacetone], in assay [1] (after 6 hours), the L is listed as 86.1, the a came to 13.4 and the b amounted to 39.9. In assay [1] (after 24 hours), this molecule yielded an L of 61.3, an a of 31.7 and a b of 75.0. In assay [1] (after one hour), this molecule returned an L of 99.4, an a of 0.4 and a b of 1.3.
Consider `O=C[C@H](O)[C@H]1OC(=O)[C@@H](O)[C@H]1O` [Glucuronolactone], for which the Melanin concentration % in assay [2] (10 mM + α-MSH (10^−8 M)) was 46.9%; in assay [2] (10 mM, without α-MSH) it was 56.7%. Also, the “melanin production” value in assay [2] (cell culture tests with B16V mouse melanoma cells) was “reduce melanin production”. The L in assay [3] (setting [5]) is 64.07 and 62.49 and 62.34; in assay [3] (setting [6]), 65.12 and 64.59 and 62.71; in assay [3] (setting [7]), 62.73 and 63.62 and 63.56; in assay [3] (setting [8]) it was 64.22 and 65.7 and 62.69. Further, the b in assay [3] (setting [5]) was 17.1 and 17.34 and 16.15; in assay [3] (setting [6]), 17.81 and 17.14 and 16.29; in assay [3] (setting [7]) it was 16.51 and 16.88 and 15.95; in assay [3] (setting [8]) it was 14.34 and 15.04 and 15.57. Also, in assay [3] (setting [8]), the a is 1.87 and 2.44 and 2.65. Moreover, the “skin colour in comparison with the untreated sample” value in assay [3] (explants, glucuronolactone 1%) was “darkening of the skin”. The Δa in assay [4] is 0.25 and 0.22 and 0.26.
